Laboratory results as given in patent publication US9107909B2, “Materials and methods to enhance hematopoietic stem cells engraftment procedures” (priority 2008, dated 2015).

Tests used:
[1] = test system: CXCR4 on murine KL and SKL cells; assay: CXCR4 surface expression by FACS after pulse exposure, murine cells; format: cell-based, mouse; settings: for CXCR4 expression on KL and SKL cells: pulse-exposure of Lin neg cells, 24 hours
Excerpt: Expression of EP receptors, CXCR4 and Survivin Replicate Lin^neg cell samples from CD45.2 mice were stained for SKL and each of the EP receptors and surface receptor expression on KL and SKL cells determined by FACS. For human EP receptors, UCB was obtained from Wishard Hospital, Indianapolis, Ind. with Institutional Review Board approval. Mononuclear cells were isolated on Ficoll-Paque™ Plus (Amersham Biosciences) and CD34^+ cells positively selected with MACS microbeads (Miltenyi Biotech) (Fukuda and Pelus, 2001). Replicate cells were stained for CD34 and each of the EP receptors and surface expression determined by FACS. To evaluate CXCR4, Survivin and active caspase-3, Lin^neg cells or CD34^+ UCB were treated on ice with either 1 microMolar dmPGE2 or vehicle control for 2 hours, washed, and then cultured in RPMI-1640+10% FBS at 37° C. for 24 hours. Cells were stained for SKL (murine cells) and CXCR4, Survivin, and/or active caspase-3, as described above, and analyzed by FACS.
To evaluate CXCR4, Lineage^neg mouse bone marrow cells or CD34^+ UCB were treated on ice with either 1 microMolar dmPGE2 or vehicle control for 2 hours, washed, and then cultured in RPMI-1640/10% HI-FBS at 37° C. for 24 hours, stained for SKL (murine cells) or CD34 (human) and CXCR4 and analyzed by FACS. Referring now to FIG. 4A, CXCR4 expression on murine KL and SKL cells and human CD34^+ UCB cells 24 hours after treatment with dmPGE2. Data are expressed as Mean±SEM % change in mean fluorescence intensity (MFI) of CXCR4 due to treatment with dmPGE2 or vehicle (n=3).

homed SKL cells = assay: In vivo cell cycle analysis (BrdU) of homed SKL cells; design: species or system mouse; settings: BrdU treated recipient mice, 16 hours, vs vehicle pulsed cells
Description: For in vitro cell cycle analysis, Lin^neg cells were treated with either 1 microMolar dmPGE2 or vehicle for 2 hours, washed, and cultured in Stem Cell Pro Media (Stem Cell Technologies) with rmSCF (50 ng/ml) (R&D Systems, Minneapolis, Minn.), rhFlt-3 and rhTPO (100 ng/ml each) (Immunex, Seattle, Wash.). After 20 hours, cells were stained for SKL, fixed and permeabilized, and stained with 7AAD (BD Biosciences, San Jose, Calif.). The proportion of SKL cells in S+G2/M phase was determined by measuring DNA content by FACS. […] The proportion of homed (CD45.1^+) SKL cells that were BrdU^+ was determined by FACS in individual mice.
To confirm the effect of dmPGE2 on enhancement of HSPC cell cycle observed in vitro, marrow cells were pulsed with dmPGE2 and injected into congenic mice treated with BrdU post-transplant, and the proportion of donor BrdU^+ SKL cells was determined 16 hours later.
CD45.1 Lineage^neg bone marrow cells were treated with dmPGE2 or vehicle and transplanted into lethally irradiated CD45.2 mice. […] Bone marrow was analyzed 16 hours later and the proportion of CD45.1^+, SKL cells that were BrdU^+ was analyzed by FACS analysis. […] Bone marrow was analyzed 16 hours later and the proportion of CD45.1^+, SKL cells that were BrdU^+ was analyzed by FACS analysis. […]

[2] = test system: Survivin in murine SKL cells; assay: Intracellular Survivin by FACS, murine SKL cells; format: cell-based, mouse; settings: vs control; for increase in Survivin protein, murine SKL cells: 24 hours post-pulse
Excerpt: All antibodies were purchased from BD Biosciences unless otherwise noted. For detection and sorting of murine KL and SKL cells, streptavidin conjugated with PE-Cy7 (to stain for biotinylated MACS lineage antibodies (Miltenyi Biotech, Auburn, Calif.)), c-kit-APC, Sca-1-PE or APC-Cy7, CD45. 1-PE and CD45.2-FITC were used. UCB CD34^+ cells were detected using anti-human-CD34-APC. For multilineage analysis, APC-Cy7-Mac-1, PE-Cy7-B-220 and APC-CD3 were used. EP receptors were detected with anti EP1, EP2, EP3 and EP4 rabbit IgG (Cayman Chemicals) and secondary staining with FITC-goat-anti-rabbit IgG (Southern Biotech, Birmingham, Ala.). CXCR4 expression was analyzed using streptavidin-PECy7, c-kit-APC, Sca-1-APC-Cy7, and CXCR4-PE. Apoptosis was measured with FITC-Annexin-V. For Survivin and active caspase-3 detection, cells were permeabilized and fixed using the CytoFix/CytoPerm kit (BD) and stained with anti-active-caspase-3-FITC Flow Kit (BD) or Survivin-PE (R&D Systems).
Expression of EP receptors, CXCR4 and Survivin Replicate Lin^neg cell samples from CD45.2 mice were stained for SKL and each of the EP receptors and surface receptor expression on KL and SKL cells determined by FACS. For human EP receptors, UCB was obtained from Wishard Hospital, Indianapolis, Ind. with Institutional Review Board approval. Mononuclear cells were isolated on Ficoll-Paque™ Plus (Amersham Biosciences) and CD34^+ cells positively selected with MACS microbeads (Miltenyi Biotech) (Fukuda and Pelus, 2001). Replicate cells were stained for CD34 and each of the EP receptors and surface expression determined by FACS. To evaluate CXCR4, Survivin and active caspase-3, Lin^neg cells or CD34^+ UCB were treated on ice with either 1 microMolar dmPGE2 or vehicle control for 2 hours, washed, and then cultured in RPMI-1640+10% FBS at 37° C. for 24 hours. Cells were stained for SKL (murine cells) and CXCR4, Survivin, and/or active caspase-3, as described above, and analyzed by FACS. […]

Row | Structure (SMILES) | increase in CXCR4 expression on SKL ([1]; after PGE2 exposure) [%] | CXCR4 expression on KL and SKL cells [1] | donor (homed) SKL cells in S+G2/M phase (homed SKL cells) [fold] | increase in Survivin protein, murine SKL cells [2] [fold] | Survivin mRNA ([2]; QRT-PCR)
1 | CCCCC[C@H](O)/C=C/[C@H]1[C@H](O)CC(=O)[C@@H]1C/C=C\CCCC(=O)O [PGE2, Prostaglandin E2] | 26.8 | increased | ~2 | 1.7 | –
2 | CCCCC(C)(C)[C@H](O)/C=C/[C@H]1[C@H](O)CC(=O)[C@@H]1C/C=C\CCCC(=O)O [dmPGE2, 16,16-dimethyl prostaglandin E2] | – | increased CXCR4 expression | ~2 | 1.7 | elevated Survivin mRNA
